# Target: T1, human secreted PLA2 (Homo sapiens, UniProt P14555)
# T1 sequence (P14555 21-144): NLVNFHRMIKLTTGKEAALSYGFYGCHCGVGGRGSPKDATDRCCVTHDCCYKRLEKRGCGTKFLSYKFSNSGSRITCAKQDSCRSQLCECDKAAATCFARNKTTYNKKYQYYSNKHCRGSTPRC
# Assay: chromogenic assay of recombinant human secreted phospholipase A2 inhibition (Assay Example 1)
# Assay type: biochemical
# Details: mean of 3-5 tests; 40° C., 30 minutes, pH 7.5, 405 nanometers; read-out: Inhibition of human secreted PLA2 IC50 ± mean deviation (3-5 tests)
# Excerpt: The assay described herein has been adapted for high volume screening using 96 well microtiter plates. A general description of this assay method is found in the article, "Analysis of Human Synovial Fluid Phospholipase A2 on Short Chain Phosphatidylcholine-Mixed Micelles: Development of a Spectrophotometric Assay Suitable for a Microtiterplate Reader", by Laure J. Reynolds, Lori L. […] Reagents, the disclosure of which is incorporated herein by reference. REACTION BUFFER CaCl2.2H20 (1.47 g/L) KCl (7.455 g/L) Bovine Serum Albumin (fatty acid free) (1 g/L) (Sigma A-7030, product of Sigma Chemical Co. St. Louis Mo., USA) TRIS HCl (3.94 g/L) pH 7.5 (adjust with NaOH) ENZYME BUFFER […] 0.2 NaCl Adjust pH to 4.5 with acetic acid DTNB […] RACEMIC DIHEPTANOYL THIO - PC […] TRITON X-100™ prepare at 6.249 mg/ml in reaction buffer to equal […]. REACTION MIXTURE A measured volume of racemic dipheptanoyl thio PC supplied in chloroform at a concentration of 100 mg/ml is taken to dryness and redissolved in 10 millimolar TRITON X-100™ nonionic detergent aqueous solution. Reaction Buffer is added to the solution, then DTNB to give the Reaction Mixture. The reaction mixture thus obtained contains 1 mM diheptanoly thio-PC substrate, 0.29 mM Triton X-100™ detergent, and 0.12 mM DTMB in a buffered aqueous solution at pH 7.5. Assay Procedure: 1. Add 0.2 ml reaction mixture to all wells; 2. Add 10 ul test compound (or solvent blank) to appropriate wells, mix 20 seconds; 3. Add 50 nanograms of sPLA2 (10 microliters) to appropriate wells; 4. Incubate plate at 40° C. for 30 minutes; […] Read absorbance of wells at 405 nanometers with an automatic plate reader. All compounds were tested in triplicate. Typically, compounds were tested at a final concentration of 5 ug/ml. […] Lack of color development at 405 nanometers evidenced inhibition. Compounds initially found to be active were reassayed to confirm their activity and, if sufficiently active, IC50 values were determined. […] In all cases, % inhibition measured at 405 nanometers generated by enzyme reactions containing inhibitors relative to the uninhibited control reactions was determined. Each sample was titrated in triplicate and result values were averaged for plotting and calculation of IC50 values. […] IC50 values were determined at least three times for each compound tested.
row,Molecule,IC50
1,"COc1ccc2c(c1)c(CC(=O)NN)c(C)n2C(C)c1ccccc1 (centres unmarked) [Example 36, 5-Methoxy-2-methyl-1-(1-phenylethyl)-1H-indole-3-acetic acid hydrazide]",5.32 ± 1.93 µM
2,"COc1ccc2c(c1)c(CC(=O)NN)c(C)n2Cc1ccccn1 [Example 37, 5-Methoxy-2-methyl-1-[(2-pyridyl)methyl]-1H-indole-3-acetic acid hydrazide]",27.2 ± 7.89 µM
3,"COc1ccc2c(c1)c(CC(=O)NN)c(C)n2Cc1cccnc1 [Example 38, 5-Methoxy-2-methyl-1-[(3-pyridyl)methyl]-1H-indole-3-acetic acid hydrazide]",84.2 ± 19.4 µM
4,"COc1ccc2c(c1)c(CC(=O)NN)c(C)n2CC(C)C [Example 13, 5-Methoxy-2-methyl-1-(2-methyl-1-propyl)-1H-indole-3-acetic acid hydrazide]",9.88 ± 3.41 µM
5,"CCCCCCCCCCn1c(C)c(CC(=O)NN)c2cc(OC)ccc21 [Example 14, 1-Decyl-5-methoxy-2-methyl-1H-indole-3-acetic acid hydrazide]",7.08 ± 1.61 µM
6,"Cc1c(CC(=O)NN)c2ccccc2n1Cc1ccccc1 [Example 10, 2-Methyl-1-(phenylmethyl)-1H-indole-3-acetic acid hydrazide]",2.36 ± 0.5 µM
7,"COc1ccc2c(c1)c(CC(=O)NN)c(C)n2CCCCc1ccccc1 [Example 42, 5-Methoxy-2-methyl-1-(4-phenylbutyl)-1H-indole-3-acetic acid hydrazide]",16.5 ± 3.58 µM
8,"CCCCCCCCCCCCCCCCCCn1c(C)c(CC(=O)NN)c2cc(OC)ccc21 [Example 15, 5-Methoxy-2-methyl-1-octadecyl-1H-indole-3-acetic acid hydrazide]",> 100 µM
9,"COc1ccc2ccccc2c1Cn1c(C)c(CC(=O)NN)c2ccccc21 [Example 11, 1-(2-Methoxy-1-naphthalenylmethyl)-2-methyl-1H-indole-3-acetic acid hydrazide]",11.1 ± 1.8 µM
10,"COc1ccc2c(c1)c(CC(=O)NN)c(C)n2Cc1ccc2ccccc2n1 [Example 40, 5-Methoxy-2-methyl-1-[(2-quinolyl)methyl]-1H-indole-3-acetic acid hydrazide]",8.15 ± 3.27 µM
11,"COc1ccc2c(c1)c(CC(=O)NN)c(C)n2Cc1ccccc1OC [Example 26, 5-Methoxy-1-[(2-methoxyphenyl)methyl]-2-methyl-1H-indole-3-acetic acid hydrazide]",3.26 ± 1.74 µM
12,"Cc1c(CC(=O)NN)c2cc(C(=O)NN)ccc2n1Cc1cccc(Cl)c1 [Example 69, 1-[(3-Chlorophenyl)methyl]-5-hydrazinocarbonyl-2-methyl-1H -indole-3-acetic acid hydrazide]",2.7 ± 0.38 µM
13,"COc1ccc2c(c1)c(CC(=O)NN)c(C)n2CCCc1ccccc1 [Example 41, 5-Methoxy-2-methyl-1-(3-phenylpropyl)-1H-indole-3-acetic acid hydrazide]",16.8 ± 2.89 µM
14,"COc1ccc2c(c1)c(CC(=O)NN)c(C)n2Cc1ccncc1 [Example 39, 5-Methoxy-2-methyl-1-[(4-pyridyl)methyl]-1H-indole-3-acetic acid hydrazide]",45.9 ± 13.1 µM
15,"COc1ccc2c(c1)c(CC(=O)NN)c(C)n2Cc1ccc(OCc2ccccc2)cc1 [Example 32, 1-[(4-Benzyloxyphenyl)methyl]-5-methoxy-2-methyl-1H-indole-3-acetic acid hydrazide]",2.28 ± 0.57 µM
16,"Cc1c(CC(=O)NN)c2cc(OCc3ccc4ccccc4n3)ccc2n1Cc1ccc(Cl)cc1 [Example 63, 1-[(4-Chlorophenyl)methyl]-2-methyl-5-[(2-quinolyl)methoxy]-1H-indole-3-acetic acid hydrazide]",8.46 ± 5.45 µM
17,5-Methoxy-1-(phenylmethyl)-1H-indole-3-propanoic acid hydrazide [Example 64],5.9 ± 2.99 µM
18,5-Methoxy-2-methyl-1-(phenylmethyl)-1H-indole-3-butanoic acid hydrazide [Example 67],24.2 ± 10.7 µM
19,"COc1ccc2c(c1)c(CC(=O)NN)c([S+](C)[O-])n2Cc1ccccc1 (centres unmarked) [Example 46, 5-Methoxy-2-methylsulfinyl-1-(phenylmethyl)-1H-indole-3-acetic acid hydrazide]",46.1 ± 24.7 µM
20,"COc1ccc2c(c1)c(CC(=O)NN)cn2Cc1ccccc1-c1ccccc1 [Example 12, 1-([1,1'-Biphenyl]-2-ylmethyl)-5-methoxy-1H-indole-3-acetic acid hydrazide]",5.49 ± 4.29 µM
21,"COc1ccc2c(c1)c(CC(=O)NN)c(C)n2Cc1ccc(Cl)cc1 [Example 19, 1-(4-Chlorophenylmethyl)-5-methoxy-2-methyl-1H-indole-3-acetic acid hydrazide]",9.28 ± 2.06 µM

# Molecules with a lower IC50, results first:
row,IC50,Molecule
1,2.06 ± 0.94 µM,"Cc1c(CC(=O)NN)c2c(Br)cccc2n1Cc1ccccc1 [Example 53, 4-Bromo-2-methyl-1-(phenylmethyl)-1H-indole-3-acetic acid hydrazide]"
2,2.06 ± 0.94 µM,"Cc1c(CC(=O)NN)c2c(-c3ccccc3)cccc2n1Cc1ccccc1 [Example 55, 2-Methyl-4-phenyl-1-(phenylmethyl)-1H-indole-3-acetic acid hydrazide]"
3,1.63 ± 0.74 µM,"Cc1c(CC(=O)NN)c2cc(Cl)ccc2n1Cc1cccc(Cl)c1 [Example 49, 5-Chloro-[(3-chlorophenyl)methyl]-2-methyl-1H-indole-3-acetic acid hydrazide]"
4,1.54 ± 0.67 µM,"COc1ccc2c(c1)c(CC(=O)NN)c(C)n2Cc1cccc(C)c1 [Example 22, 5-Methoxy-1-[(3-methylphenyl)methyl]-2-methyl-1H-indole-3-acetic acid hydrazide]"
5,1.49 ± 0.34 µM,"Cc1c(CC(=O)NN)c2cc(F)ccc2n1Cc1ccccc1 [Example 47, 5-Fluoro-2-methyl-1-(phenylmethyl)-1H-indole-3-acetic acid hydrazide]"
6,1.34 ± 0.44 µM,"Cc1c(CC(=O)NN)c2cc(Br)ccc2n1Cc1cccc(-c2ccccc2)c1 [Example 51, 1-([1,1'-biphenyl]-3-ylmethyl)-5-bromo-2-methyl-1H-indole-3-acetic acid hydrazide]"
7,1.14 ± 0.44 µM,"Cc1c(CC(=O)NN)c2ccc(Cl)cc2n1Cc1ccccc1 [Example 8, 6-Chloro-2-methyl-1-(phenylmethyl)-1H-indole-3-acetic acid hydrazide]"
8,1.02 ± 0.26 µM,"Cc1c(CC(=O)NN)c2ccc(Br)cc2n1Cc1ccccc1 [Example 54, 6-Bromo-2-methyl-1-(phenylmethyl)-1H-indole-3-acetic acid hydrazide]"
9,1.02 ± 0.43 µM,"Cc1c(CC(=O)NN)c2cc(Br)ccc2n1Cc1ccccc1 [Example 50, 5-Bromo-2-methyl-1-(phenylmethyl)-1H-indole-3-acetic acid hydrazide]"
10,1.02 ± 0.35 µM,"Cc1c(CC(=O)NN)c2cc(C(C)(C)C)ccc2n1Cc1ccccc1 [Example 60, 5-tert-Butyl-2-methyl-1-(phenylmethyl)-1H-indole-3-acetic acid hydrazide]"
11,0.89 ± 0.52 µM,"COc1ccc2c(c1)c(CC(=O)NN)c(C)n2Cc1cccc(C(F)(F)F)c1 [Example 23, 5-Methoxy-2-methyl-1-[(3-trifluoromethylphenyl)methyl]-1H-indole-3-acetic acid hydrazide]"
12,0.84 ± 0.31 µM,"CCCCCCCCCCOc1cccc(Cn2c(C)c(CC(=O)NN)c3cc(OC)ccc32)c1 [Example 29, 1-[(3-Decyloxyphenyl)methyl]-5-methoxy-2-methyl-1H-indole-3-acetic acid hydrazide]"
13,0.8 ± 0.25 µM,"CCOc1ccc2c(c1)c(CC(=O)NN)c(C)n2Cc1ccccc1 [Example 1, 5-Ethoxy-2-methyl-1-(phenylmethyl)-1H-indole-3-acetic acid hydrazide]"
14,0.76 ± 0.35 µM,"Cc1ccc2c(c1)c(CC(=O)NN)c(C)n2Cc1ccccc1 [Example 59, 2,5-Dimethyl-1-(phenylmethyl)-1H-indole-3-acetic acid hydrazide]"
15,0.74 ± 0.15 µM,"Cc1c(CC(=O)NN)c2cc(Cl)ccc2n1Cc1ccccc1 [Example 48, 5-Chloro-2-methyl-1-(phenylmethyl)-1H-indole-3-acetic acid hydrazide]"
16,0.64 ± 0.19 µM,"COc1ccc2c(c1)c(CC(=O)NN)c(C)n2Cc1c(Cl)cccc1Cl [Example 21, 1-(2,6-Dichlorophenylmethyl)-5-methoxy-2-methyl-1H-indole-3-acetic acid hydrazide]"
17,0.36 ± 0.17 µM,"Cc1c(CC(=O)NN)c2cc(OCc3ccc4ccccc4n3)ccc2n1Cc1ccccc1 [Example 62, 2-Methyl-1-(phenylmethyl)-5-[(2-quinolyl)methoxy]-1H-indole-3-acetic acid hydrazide]"

# Reference: patent US5578634A, “1H-indole-3-acetic acid hydrazide sPLA2 inhibitors” (Eli Lilly and Company, priority 1995, dated 1996)
